Data published in patent publication US20100076015A1, “Aminopyridine Derivatives” (VANTIA LIMITED, priority 2008, published 2010).

These compounds were tested against T1, Human KLK1 (Homo sapiens, UniProt P06870) (assay: Determination of the IC50 for KLK1 (fluorogenic substrate H-DVal-Leu-Arg-AFC)). Settings: 37° C.
T1 construct: purchased Callbiochem (Calbiochem)
Assay type: biochemical
Description: Determination of the IC50 for KLK1
KLK1 inhibitory activity in vitro was determined using standard published methods (see e.g. Johansen et al., Int. J. Tiss. Reac. 1986, 8, 185; Shori et al., Biochem. Pharmacol., 1992, 43, 1209; Stürzebecher et al., Biol. Chem. Hoppe-Seyler, 1992, 373, 1025). Human KLK1 (Callbiochem) was incubated at 37° C. with the fluorogenic substrate H-DVal-Leu-Arg-AFC and various concentrations of the test compound. Residual enzyme activity (initial rate of reaction) was determined by measuring the change in optical absorbance at 410 nm and the IC50 value for the test compound was determined.

T1 sequence (P06870 25-262): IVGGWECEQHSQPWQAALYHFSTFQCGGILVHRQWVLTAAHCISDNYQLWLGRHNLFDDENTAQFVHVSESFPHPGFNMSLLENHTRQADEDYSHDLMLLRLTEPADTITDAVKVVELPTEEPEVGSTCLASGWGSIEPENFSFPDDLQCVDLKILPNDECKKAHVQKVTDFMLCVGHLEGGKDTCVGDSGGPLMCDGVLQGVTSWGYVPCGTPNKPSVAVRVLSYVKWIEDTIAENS

Row | IC50 | SMILES
1 | 0.66 nM | Nc1ccc(CNC(=O)[C@H](Cc2ccc(Cl)c(Cl)c2)NC(=O)[C@H]2CCCCN2)cn1 [Example 63, (R)-Piperidine-2-carboxylic acid [(S)-1-[(6-amino-pyridin-3-ylmethyl)-carbamoyl]-2-(3,4-dichloro-phenyl)-ethyl]-amide]
2 | 3.1 nM | Nc1ccc(CNC(=O)[C@H](Cc2ccc(Cl)c(Cl)c2)NC(=O)[C@H]2Cc3ccccc3CN2)cn1 [Example 64, (R)-1,2,3,4-Tetrahydro-isoquinoline-3-carboxylic acid [(S)-1-[(6-amino-pyridin-3-ylmethyl)-carbamoyl]-2-(3,4-dichloro-phenyl)-ethyl]-amide]
3 | 2.7 nM | Nc1ccc(CNC(=O)[C@H](Cc2ccc(Cl)c(Cl)c2)NC(=O)[C@H]2C=CCN2)cn1 [Example 65, (R)-2,5-Dihydro-1H-pyrrole-2-carboxylic acid [(S)-1-[(6-amino-pyridin-3-ylmethyl)-carbamoyl]-2-(3,4-dichloro-phenyl)-ethyl]-amide]
4 | 20.7 nM | Nc1ccc(CNC(=O)[C@H](Cc2ccc(Cl)c(Cl)c2)NC(=O)[C@H]2CC(F)(F)CN2)cn1 [Example 66, (R)-4,4-Difluoro-pyrrolidine-2-carboxylic acid [(S)-1-[(6-amino-pyridin-3-ylmethyl)-carbamoyl]-2-(3,4-dichloro-phenyl)-ethyl]-amide]
5 | 3.1 nM | Nc1ccc(CNC(=O)[C@H](Cc2ccc(Cl)c(Cl)c2)NC(=O)[C@H](N)CCc2ccccc2)cn1 [Example 67, (R)-2-Amino-N-[(S)-1-[(6-amino-pyridin-3-ylmethyl)-carbamoyl]-2-(3,4-dichloro-phenyl)-ethyl]-4-phenyl-butyramide]
6 | 9.2 nM | Nc1ccc(CNC(=O)[C@H](Cc2ccc(Cl)c(Cl)c2)NC(=O)[C@H](N)CC2CCCCC2)cn1 [Example 68, (R)-2-Amino-N-[(S)-1-[(6-amino-pyridin-3-ylmethyl)-carbamoyl]-2-(3,4-dichloro-phenyl)-ethyl]-3-cyclohexyl-propionamide]
7 | 42.2 nM | CNCC(=O)N[C@@H](Cc1ccc(Cl)c(Cl)c1)C(=O)NCc1ccc(N)nc1 [Example 69, (S)—N-(6-Amino-pyridin-3-ylmethyl)-3-(3,4-dichloro-phenyl)-2-(2-methylamino-acetylamino)-propionamide]
8 | 1.1 nM | Nc1ccc(CNC(=O)[C@H](Cc2cccc(C(F)(F)F)c2)NC(=O)[C@H](N)Cc2ccc(Cl)cc2)cn1 [Example 70, (R)-2-Amino-N-[(S)-1-[(6-amino-pyridin-3-ylmethyl)-carbamoyl]-2-(3-trifluoromethyl-phenyl)-ethyl]-3-(4-chloro-phenyl)-propionamide]
9 | 7.2 nM | Nc1ccc(CNC(=O)[C@H](Cc2ccc(F)c(F)c2)NC(=O)[C@H]2CCCN2)cn1 [Example 72, (R)-Pyrrolidine-2-carboxylic acid [(S)-1-[(6-amino-pyridin-3-ylmethyl)-carbamoyl]-2-(3,4-difluoro-phenyl)-ethyl]-amide]
10 | 1.1 nM | Nc1ccc(CNC(=O)[C@H](Cc2ccc(F)cc2)NC(=O)[C@H]2CCCCN2)cn1 [Example 73, (R)-Piperidine-2-carboxylic acid [(S)-1-[(6-amino-pyridin-3-ylmethyl)-carbamoyl]-2-(4-fluoro-phenyl)-ethyl]-amide]
11 | 1.8 nM | Nc1ccc(CNC(=O)[C@H](Cc2ccc(F)c(F)c2)NC(=O)[C@H]2CCCCN2)cn1 [Example 74, (R)-Piperidine-2-carboxylic acid [(S)-1-[(6-amino-pyridin-3-ylmethyl)-carbamoyl]-2-(3,4-difluoro-phenyl)-ethyl]-amide]
12 | 2.2 nM | Nc1ccc(CNC(=O)[C@H](Cc2cccc3ccccc23)NC(=O)[C@H]2CCCCN2)cn1 [Example 75, (R)-Piperidine-2-carboxylic acid {(S)-1-[(6-amino-pyridin-3-ylmethyl)-carbamoyl]-2-naphthalen-1-ylethyl}-amide]
13 | 21.8 nM | Nc1ccc(CNC(=O)[C@H](Cc2ccccc2Cl)NC(=O)[C@H]2CCCCN2)cn1 [Example 76, (R)-Piperidine-2-carboxylic acid [(S)-1-[(6-amino-pyridin-3-ylmethyl)-carbamoyl]-2-(2-chloro-phenyl)-ethyl]-amide]
14 | 2.9 nM | Nc1ccc(CNC(=O)[C@H](Cc2cccc(Cl)c2)NC(=O)[C@H]2CCCCN2)cn1 [Example 77, (R)-Piperidine-2-carboxylic acid [(S)-1-[(6-amino-pyridin-3-ylmethyl)-carbamoyl]-2-(3-chloro-phenyl)-ethyl]-amide]
15 | 1.2 nM | Nc1ccc(CNC(=O)[C@H](Cc2csc3ccccc23)NC(=O)[C@H]2CCCCN2)cn1 [Example 78, (R)-Piperidine-2-carboxylic acid {(S)-1-[(6-amino-pyridin-3-ylmethyl)-carbamoyl]-2-benzo[b]thiophen-3-yl-ethyl}-amide]
16 | 16.1 nM | Nc1ccc(CNC(=O)[C@H](Cc2ccc(F)c(F)c2)NC(=O)[C@H](N)Cc2ccccc2)cn1 [Example 80, (R)-2-Amino-N-[(S)-1-[(6-amino-pyridin-3-ylmethyl)-carbamoyl]-2-(3,4-difluoro-phenyl)-ethyl]-3-phenyl-propionamide]

Row | IC50 | SMILES
17 | 5 nM | CN[C@H](Cc1ccccc1)C(=O)N[C@@H](Cc1ccc(F)c(F)c1)C(=O)NCc1ccc(N)nc1 [Example 81, (R)—N-[(S)-1-[(6-Amino-pyridin-3-ylmethyl)carbamoyl]-2-(3,4-difluoro-phenyl)-ethyl]-2-methylamino-3-phenyl-propionamide]
18 | 11.2 nM | CCC(C)[C@H](NC)C(=O)N[C@@H](Cc1ccc(F)c(F)c1)C(=O)NCc1ccc(N)nc1 (stereo partly drawn) [Example 82, (S)-3-Methyl-2-methylamino-pentanoic acid [(S)-1-[(6-amino-pyridin-3-ylmethyl)-carbamoyl]-2-(3,4-difluoro-phenyl)-ethyl]-amide]
19 | 158 nM | CCC(C)[C@H](N)C(=O)N[C@@H](Cc1ccc(F)c(F)c1)C(=O)NCc1ccc(N)nc1 (stereo partly drawn) [Example 83, (S)-2-Amino-3-methyl-pentanoic acid [(S)-1-[(6-amino-pyridin-3-ylmethyl)-carbamoyl]-2-(3,4-difluoro-phenyl)-ethyl]-amide]
20 | 8 nM | CN[C@H](C)C(=O)N[C@@H](Cc1ccc(F)c(F)c1)C(=O)NCc1ccc(N)nc1 [Example 84, (R)—N-[(S)-1-[(6-Amino-pyridin-3-ylmethyl)-carbamoyl]-2-(3,4-difluoro-phenyl)-ethyl]-2-methylamino-propionamide]
21 | 13.9 nM | CN[C@@H](C)C(=O)N[C@@H](Cc1ccc(F)c(F)c1)C(=O)NCc1ccc(N)nc1 [Example 85, (S)—N-[(S)-1-[(6-Amino-pyridin-3-ylmethyl)-carbamoyl]-2-(3,4-difluoro-phenyl)-ethyl]-2-methylamino-propionamide]
22 | 15.5 nM | CNC(C)(C)C(=O)N[C@@H](Cc1ccc(F)c(F)c1)C(=O)NCc1ccc(N)nc1 [Example 86, N-[(S)-1-[(6-Amino-pyridin-3-ylmethyl)-carbamoyl]-2-(3,4-difluoro-phenyl)-ethyl]-2-methyl-2-methylamino-propionamide]
23 | 6.4 nM | CN[C@H](C)C(=O)N[C@@H](Cc1ccc(F)cc1)C(=O)NCc1ccc(N)nc1 [Example 87, (R)—N-[(S)-1-[(6-Amino-pyridin-3-ylmethyl)-carbamoyl]-2-(4-fluoro-phenyl)-ethyl]-2-methylamino-propionamide]
24 | 6.7 nM | CN[C@@H](C)C(=O)N[C@@H](Cc1ccc(F)cc1)C(=O)NCc1ccc(N)nc1 [Example 88, (S)—N-[(S)-1-[(6-Amino-pyridin-3-ylmethyl)-carbamoyl]-2-(4-fluoro-phenyl)-ethyl]-2-methylamino-propionamide]
25 | 11 nM | CN[C@@H](C(=O)N[C@@H](Cc1ccc(F)cc1)C(=O)NCc1ccc(N)nc1)C(C)C [Example 89, (R)—N-[(S)-1-[(6-Amino-pyridin-3-ylmethyl)-carbamoyl]-2-(4-fluoro-phenyl)-ethyl]-3-methyl-2-methylamino-butyramide]
26 | 0.85 nM | CN1CCC[C@@H]1C(=O)N[C@@H](Cc1ccc(Cl)cc1)C(=O)NCc1ccc(N)nc1 [Example 93, (R)-1-Methyl-pyrrolidine-2-carboxylic acid [(S)-1-[(6-amino-pyridin-3-ylmethyl)-carbamoyl]-2-(4-chloro-phenyl)-ethyl]-amide]
27 | 12.5 nM | CN1CCC[C@@H]1C(=O)N[C@@H](Cc1cc(F)c(F)cc1F)C(=O)NCc1ccc(N)nc1 [Example 94, (R)-1-Methyl-pyrrolidine-2-carboxylic acid [(S)-1-[(6-amino-pyridin-3-ylmethyl)-carbamoyl]-2-(2,4,5-trifluoro-phenyl)-ethyl]-amide]
28 | 1.8 nM | CN1CCC[C@@H]1C(=O)N[C@@H](Cc1csc2ccccc12)C(=O)NCc1ccc(N)nc1 [Example 95, (R)-1-Methyl-pyrrolidine-2-carboxylic acid {(S)-1-[(6-amino-pyridin-3-ylmethyl)-carbamoyl]-2-benzo[b]thiophen-3-yl-ethyl}-amide]
29 | 5.5 nM | CN1CCC[C@@H]1C(=O)N[C@@H](Cc1cc(F)cc(F)c1)C(=O)NCc1ccc(N)nc1 [Example 96, (R)-1-Methyl-pyrrolidine-2-carboxylic acid [(S)-1-[(6-amino-pyridin-3-ylmethyl)-carbamoyl]-2-(3,5-difluoro-phenyl)-ethyl]-amide]
30 | 45.2 nM | CN1CCCC1C(=O)NC(Cc1c(F)c(F)c(F)c(F)c1F)C(=O)NCc1ccc(N)nc1 [Example 97, (R)-1-Methyl-pyrrolidine-2-carboxylic acid {(S)-1-[(6-amino-pyridin-3-ylmethyl)-carbamoyl]-2-pentafluorophenyl-ethyl}-amide]
31 | 1.3 nM | CN1CCC[C@@H]1C(=O)N[C@@H](Cc1ccc(F)cc1)C(=O)NCc1ccc(N)nc1 [Example 98, (R)-1-Methyl-pyrrolidine-2-carboxylic acid [(S)-1-[(6-amino-pyridin-3-ylmethyl)-carbamoyl]-2-(4-fluoro-phenyl)-ethyl]-amide]
